Reference: patent publication US7635716B2, “Substituted cyclopentanes or cyclopentanones as therapeutic agents” (Allergan, Inc., priority 2005, dated 2009)
Like-named read-outs stand apart in the source and are kept apart here.

Experiments:
hDP/Gqs5 = target: T1, hDP/Gqs5 (Homo sapiens, UniProt Q13258); experiment: FLIPR calcium signal, HEK-293(EBNA) cells; format: cell-based
T1 construct: expressed in transfected cells; host or cells: HEK-293(EBNA) cells
T1 sequence (Q13258 1-359): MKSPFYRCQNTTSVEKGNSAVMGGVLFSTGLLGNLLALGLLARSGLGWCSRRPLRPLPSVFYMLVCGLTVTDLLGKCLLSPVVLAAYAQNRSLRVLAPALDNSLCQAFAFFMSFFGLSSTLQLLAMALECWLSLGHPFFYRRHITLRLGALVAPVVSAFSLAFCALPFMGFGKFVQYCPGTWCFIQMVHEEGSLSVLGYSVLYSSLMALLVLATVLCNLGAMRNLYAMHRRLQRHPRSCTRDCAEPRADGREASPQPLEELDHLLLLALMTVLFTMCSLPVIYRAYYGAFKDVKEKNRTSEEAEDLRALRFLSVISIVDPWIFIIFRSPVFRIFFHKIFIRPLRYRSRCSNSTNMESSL
Procedure: (§1) HEK-293(EBNA) cells, stably expressing one type or subtype of recombinant human prostaglandin receptors (prostaglandin receptors expressed: hDP/Gqs5; hEP1; hEP2/Gqs5; hEP3A/Gqi5; hEP4/Gqs5; hFP; hIP; hTP), were cultured in 100 mm culture dishes in high-glucose DMEM medium containing 10% fetal bovine serum, 2 mM 1-glutamine, 250 μg/ml geneticin (G418) and 200 μg/ml hygromycin B as selection markers, and 100 units/ml penicillin G, 100 μg/ml streptomycin and 0.25 μg/ml amphotericin B.
(§2) Cells were seeded at a density of 5×10^4 cells per well in Biocoat® Poly-D-lysine-coated black-wall, clear-bottom 96-well plates (Becton-Dickinson) and allowed to attach overnight in an incubator at 37° C. Cells were then washed two times with HBSS-HEPES buffer (Hanks Balanced Salt Solution without bicarbonate and phenol red, 20 mM HEPES, pH 7.4) using a Denley Cellwash plate washer (Labsystems). After 45 minutes of dye-loading in the dark, using the calcium-sensitive dye Fluo-4 AM at a final concentration of 2 μM, plates were washed four times with HBSS-HEPES buffer to remove excess dye leaving 100 μl in each well. Plates were re-equilibrated to 37° C. for a few minutes.
(§3) Cells were excited with an Argon laser at 488 nm, and emission was measured through a 510-570 nm bandwidth emission filter (FLIPR™, Molecular Devices, Sunnyvale, Calif.). Drug solution was added in a 50 μl volume to each well to give the desired final concentration. The peak increase in fluorescence intensity was recorded for each well. On each plate, four wells each served as negative (HBSS-HEPES buffer) and positive controls (standard agonists: BW245C (hDP); PGE2 (hEP1; hEP2/Gqs5; hEP3A/Gqi5; hEP4/Gqs5); PGF2. (hFP); carbacyclin (hIP); U-46619 (hTP), depending on receptor). The peak fluorescence change in each drug-containing well was then expressed relative to the controls.
(§4) Compounds were tested in a high-throughput (HTS) or concentration-response (CoRe) format. In the HTS format, forty-four compounds per plate were examined in duplicates at a concentration of 10^−5 M. To generate concentration-response curves, four compounds per plate were tested in duplicates in a concentration range between 10^−5 and 10^−11 M. The duplicate values were averaged. In either, HTS or CoRe format each compound was tested on at least 3 separate plates using cells from different passages to give an n≧3.

hFP = target: T2, hFP (Homo sapiens, UniProt P43088); experiment: FLIPR calcium signal, HEK-293(EBNA) cells; format: cell-based
T2 construct: expressed in transfected cells; host or cells: HEK-293(EBNA) cells
T2 sequence (P43088 whole entry): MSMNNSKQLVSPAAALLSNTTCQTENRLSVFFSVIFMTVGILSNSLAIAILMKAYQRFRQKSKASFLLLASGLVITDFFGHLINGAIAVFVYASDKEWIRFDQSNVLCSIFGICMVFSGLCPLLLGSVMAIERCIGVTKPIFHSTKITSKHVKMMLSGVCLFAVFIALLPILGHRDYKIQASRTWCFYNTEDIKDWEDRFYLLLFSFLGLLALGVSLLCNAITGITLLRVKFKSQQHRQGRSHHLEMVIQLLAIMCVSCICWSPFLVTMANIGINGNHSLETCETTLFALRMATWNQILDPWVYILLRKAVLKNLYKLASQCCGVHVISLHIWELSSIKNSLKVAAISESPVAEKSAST
Procedure: as §1, §2, §3, §4

hEP4/Gqs5 = target: T3, hEP4/Gqs5 (Homo sapiens, UniProt P35408); experiment: FLIPR calcium signal, HEK-293(EBNA) cells; format: cell-based
T3 construct: expressed in transfected cells; host or cells: HEK-293(EBNA) cells
T3 sequence (P35408 whole entry): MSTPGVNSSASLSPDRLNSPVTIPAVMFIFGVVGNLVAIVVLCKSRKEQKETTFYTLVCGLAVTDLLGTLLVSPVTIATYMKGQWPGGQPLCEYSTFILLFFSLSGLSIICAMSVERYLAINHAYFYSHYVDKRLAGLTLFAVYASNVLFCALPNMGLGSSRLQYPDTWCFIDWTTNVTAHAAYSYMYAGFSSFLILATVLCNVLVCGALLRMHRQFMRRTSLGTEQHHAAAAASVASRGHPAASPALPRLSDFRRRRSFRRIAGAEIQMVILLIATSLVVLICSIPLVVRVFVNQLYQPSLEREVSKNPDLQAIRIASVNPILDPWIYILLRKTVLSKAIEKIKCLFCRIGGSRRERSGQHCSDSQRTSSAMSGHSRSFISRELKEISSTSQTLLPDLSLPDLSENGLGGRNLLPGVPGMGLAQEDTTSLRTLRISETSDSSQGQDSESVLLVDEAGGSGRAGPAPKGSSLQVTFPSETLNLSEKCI
Procedure: as §1, §2, §3, §4

hEP2/Gqs5 = target: T4, hEP2/Gqs5 (Homo sapiens, UniProt P43116); experiment: FLIPR calcium signal, HEK-293(EBNA) cells; format: cell-based; conditions: Table 1, first part; triplicate; read-out: functional data (EC50) hEP2
T4 construct: expressed in transfected cells; host or cells: HEK-293(EBNA) cells
T4 sequence (P43116 whole entry): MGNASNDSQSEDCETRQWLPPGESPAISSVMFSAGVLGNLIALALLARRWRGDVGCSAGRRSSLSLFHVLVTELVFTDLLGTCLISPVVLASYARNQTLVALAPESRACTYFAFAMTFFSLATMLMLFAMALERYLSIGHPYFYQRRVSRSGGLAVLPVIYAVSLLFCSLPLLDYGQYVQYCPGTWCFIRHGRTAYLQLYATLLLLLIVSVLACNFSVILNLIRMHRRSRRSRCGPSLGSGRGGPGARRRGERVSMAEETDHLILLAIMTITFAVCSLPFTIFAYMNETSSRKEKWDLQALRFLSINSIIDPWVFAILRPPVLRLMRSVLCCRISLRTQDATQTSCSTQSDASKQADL
Procedure: as §1, §2, §3, §4

hTP = target: T5, hTP (Homo sapiens, UniProt P21731); experiment: FLIPR calcium signal, HEK-293(EBNA) cells; format: cell-based
T5 construct: expressed in transfected cells; host or cells: HEK-293(EBNA) cells
T5 sequence (P21731 1-343): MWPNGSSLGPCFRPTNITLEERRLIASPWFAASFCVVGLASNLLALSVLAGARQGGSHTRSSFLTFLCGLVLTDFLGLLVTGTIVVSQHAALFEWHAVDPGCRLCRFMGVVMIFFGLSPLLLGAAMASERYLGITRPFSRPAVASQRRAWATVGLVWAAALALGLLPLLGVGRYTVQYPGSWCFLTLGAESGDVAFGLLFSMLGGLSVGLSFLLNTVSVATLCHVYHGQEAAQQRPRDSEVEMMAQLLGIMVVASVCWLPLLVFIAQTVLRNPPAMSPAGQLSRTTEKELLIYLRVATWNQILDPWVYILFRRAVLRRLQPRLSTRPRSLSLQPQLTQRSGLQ
Procedure: as §1, §2, §3, §4

hEP3A/Gqi5 = target: T6, hEP3A/Gqi5 (Homo sapiens, UniProt P43115); experiment: FLIPR calcium signal, HEK-293(EBNA) cells; format: cell-based
T6 construct: expressed in transfected cells; host or cells: HEK-293(EBNA) cells
T6 sequence (P43115 1-390): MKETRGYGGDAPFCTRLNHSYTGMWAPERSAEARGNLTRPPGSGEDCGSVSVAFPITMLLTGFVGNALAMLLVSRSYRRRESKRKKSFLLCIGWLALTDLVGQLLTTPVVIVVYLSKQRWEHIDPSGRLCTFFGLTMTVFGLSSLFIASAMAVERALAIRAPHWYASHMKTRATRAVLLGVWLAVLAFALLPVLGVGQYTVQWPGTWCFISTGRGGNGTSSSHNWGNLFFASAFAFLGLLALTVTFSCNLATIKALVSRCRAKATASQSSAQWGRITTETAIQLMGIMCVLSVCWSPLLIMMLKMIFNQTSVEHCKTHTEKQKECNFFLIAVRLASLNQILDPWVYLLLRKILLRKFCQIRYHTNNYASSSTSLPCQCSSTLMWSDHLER
Procedure: as §1, §2, §3, §4

normotensive dogs [1] = experiment: Ocular surface hyperemia (OSH) in normotensive dogs; format: in vivo, dog; set-up: maximum OSH score: scale not given here; conditions: dosing once daily for 5 days
Procedure: (§5) (Z)-7-[(1R,2S,3R,5R)-5-Chloro-2-(3,5-dichloro-phenoxymethyl)-3-hydroxy-cyclopentyl]-hept-5-enoic acid (15b) was tested at multiple concentrations in normotensive dogs, dosing once daily for 5 days. At 0.05%, the maximum IOP decrease from baseline was 4.3 mmHg (30%) at 6 h; the maximum OSH score was 0.6 at 6 h. […] This compound was also tested in laser-induced hypertensive monkeys, using one single day dose. At 0.1%, the maximum IOP decrease from baseline was 6 mmHg (19%) at 6 h.
(§6) (Z)-7-[(1R,2S,3R,5R)-5-Chloro-2-(3,5-dichloro-phenoxymethyl)-3-hydroxy-cyclopentyl]-hept-5-enoic acid isopropyl ester (42b) was tested in normotensive dogs at 0.05%, dosing once daily for 5 days. The maximum intraocular pressure (IOP) decrease from baseline was 3 mmHg (19%) at 6 h; the maximum ocular surface hyperemia (OSH) score was 0.6 at 74 h. This compound was also tested in laser-induced hypertensive monkeys, using one single day dose. At 0.01%, the maximum IOP decrease from baseline was 6 mmHg (16%) at 6 h.

[2] = tested on: laser-induced hypertensive monkeys; experiment: Intraocular pressure (IOP) in laser-induced hypertensive monkeys; format: in vivo, monkey; conditions: Primates, topical, one single day dose, read-out: maximum IOP decrease from baseline (percent)
Procedure: as §5, §6

normotensive dogs [3] = experiment: Intraocular pressure (IOP) in normotensive dogs; format: in vivo, dog; conditions: Canis lupus familiaris, topical, 120 h, dosing once daily for 5 days, read-out: maximum IOP decrease from baseline (percent)
Procedure: as §5, §6

normotensive dogs [4] = experiment: Intraocular pressure (IOP) in normotensive dogs; format: in vivo, dog; conditions: Canis lupus familiaris, topical, 120 h, dosing once daily for 5 days, read-out: maximum IOP decrease from baseline (percent); remark: listed apart in the source

Question: What does the source list for `COC(=O)CCC/C=C\C[C@@H]1[C@@H](COc2cc(Cl)cc(Cl)c2)[C@H](O)C[C@H]1Cl` [Example 11, (Z)-7-[(1R,2S,3R,5R)-5-Chloro-2-(3,5-dichloro-phenoxymethyl)-3-hydroxy-cyclopentyl]-hept-5-enoic acid methyl ester]?
Answer: EC50 (hDP/Gqs5; Table 1, first part, triplicate, read-out: functional data (EC50) hDP): > 10 µM; EC50 (hDP/Gqs5; Table 1, second part, quantity not given, values match functional data (EC50) of first part, read-out: Other Receptors hDP): > 10 µM; EC50 (hFP; Table 1, first part, triplicate, read-out: functional data (EC50) hFP): > 10 µM; EC50 (hFP; Table 1, second part, quantity not given, values match functional data (EC50) of first part, read-out: Other Receptors hFP): > 10 µM; EC50 (hEP4/Gqs5; Table 1, first part, triplicate, read-out: functional data (EC50) hEP4): > 10 µM; EC50 (hEP4/Gqs5; Table 1, second part, read-out: hEP4 flipr EC50): > 10 µM; EC50 (hEP2/Gqs5): 616 nM; EC50 (hTP; Table 1, first part, triplicate, read-out: functional data (EC50) hTP): > 10 µM; EC50 (hTP; Table 1, second part, quantity not given, values match functional data (EC50) of first part, read-out: Other Receptors hTP): > 10 µM; EC50 (hEP3A/Gqi5; Table 1, first part, data represents a single experiment, read-out: functional data (EC50) hEP3A*): 9.87 µM; EC50 (hEP3A/Gqi5; Table 1, second part, quantity not given, values match functional data (EC50) of first part, read-out: Other Receptors hEP3): 9.87 µM

Question: What does the source list for `CC(C)OC(=O)CCC/C=C\C[C@@H]1[C@@H](COc2cc(Cl)cc(Cl)c2)[C@H](O)C[C@H]1Cl` [Example 67, (Z)-7-[(1R,2S,3R,5R)-5-Chloro-2-(3,5-dichloro-phenoxymethyl)-3-hydroxy-cyclopentyl]-hept-5-enoic acid isopropyl ester]?
Answer: maximum OSH score (normotensive dogs [1]; 0.05%): 0.6; time of maximum OSH score (normotensive dogs [1]; 0.05%): 74 h; inhibition in vivo at 0.01 % ([2]; 0.01%): 16%; inhibition in vivo at 0.05 % (normotensive dogs [3]; 0.05%): 19%

Question: What does the source list for `CC(C)OC(=O)CCC/C=C\C[C@@H]1[C@@H](COc2cc(C(F)(F)F)cc(C(F)(F)F)c2)[C@H](O)C[C@H]1Cl` [Example 68, (Z)-7-[(1R,2S,3R,5R)-2-(3,5-Bis-trifluoromethyl-phenoxymethyl)-5-chloro-3-hydroxy-cyclopentyl]-hept-5-enoic acid isopropyl ester]?
Answer: maximum OSH score (normotensive dogs [1]; 0.03%): 0.7; time of maximum OSH score (normotensive dogs [1]; 0.03%): 78 h; inhibition in vivo at 0.03 % ([2]; 0.03%): 11%; inhibition in vivo at 0.03 % (normotensive dogs [4]): 14%

Question: Which results are given for `CC(C)OC(=O)CCC/C=C\C[C@@H]1[C@@H](COc2cccc(C(F)(F)F)c2)[C@H](O)C[C@H]1Cl` [Example 69, (Z)-7-[(1R,2S,3R,5R)-5-Chloro-3-hydroxy-2-(3-trifluoromethyl-phenoxymethyl)-cyclopentyl]-hept-5-enoic acid isopropyl ester]?
Answer: maximum OSH score (normotensive dogs [1]; 0.1%): 0.6; time of maximum OSH score (normotensive dogs [1]; 0.1%): 50 h; inhibition in vivo at 0.1 % [2]: 14%; inhibition in vivo at 0.1 % (normotensive dogs [3]): 19%

Question: What does the source list for `Cc1cc(C)cc(OC[C@@H]2[C@@H](C/C=C\CCCC(=O)OC(C)C)[C@H](Cl)C[C@H]2O)c1` [Example 70, (Z)-7-[(1R,2S,3R,5R)-5-Chloro-2-(3,5-dimethyl-phenoxymethyl)-3-hydroxy-cyclopentyl]-hept-5-enoic acid isopropyl ester]?
Answer: maximum OSH score (normotensive dogs [1]; 0.1%): 0.9; time of maximum OSH score (normotensive dogs [1]; 0.1%): 74 h; inhibition in vivo at 0.1 % [2]: 23%; inhibition in vivo at 0.1 % (normotensive dogs [3]): 30%

Question: What does the source list for `CC(C)OC(=O)CCC/C=C\C[C@@H]1[C@@H](COc2ccc(CO)cc2)[C@H](O)C[C@H]1Cl` [Example 71, (Z)-7-[(1R,2S,3R,5R)-5-Chloro-3-hydroxy-2-(4-hydroxymethyl-phenoxymethyl)-cyclopentyl]-hept-5-enoic acid isopropyl ester]?
Answer: maximum OSH score (normotensive dogs [1]; 0.1%): 0.6; time of maximum OSH score (normotensive dogs [1]; 0.1%): 30 h; inhibition in vivo at 0.1 % [2]: 16%; inhibition in vivo at 0.1 % (normotensive dogs [3]): 33%
